Reference: patent US6818617B1 (Temple University- Of The Commonwealth System of Higher …, priority 1997, dated 2004)
Where two headings read alike, the source gives them in different places. Where a SMILES comes first, the peptide text is derived from it. Bridges are numbered along the chain shown (N, C = ends). Where no end group is shown, it is not given here.

How the values were obtained:
Jurkat cells = assay: Adhesion of Jurkat cells to immobilized EC3; format: cell-based; details: 1 mM
Experimental: (§1) Adhesion of cultured cells labeled with 5-chloromethylfluorescein diacetate (CMFDA) was performed as described earlier (Marcinkiewicz et al., Blood 90:1565-1575 (1997)). […] Wells were blocked by 1% BSA in HBSS buffer. Cells were labeled with fluorescein by incubation with 12.5 AM CMFDA in HBSS buffer containing 1% BSA at 37° C. by 15 min. Unbound label was removed by washing with the same buffer. Labeled cells (1×10^5 per sample) were added to the well in the presence or absence of inhibitors and incubated at 37° C. for 30 min. Unbound cells were removed by aspiration, the wells were washed and bound cells were lysed by adding 0.5% Triton X-100. In parallel the standard curve was prepared in the same plate from known concentrations of labelled cells. The plate was read using a Cytofluor 2350 fluorescence plate reader (Millipore, Bedford, Mass.) at 485 nm EX(excitation) filter and 530 nm (emmision) filter.
The adhesion study was performed using CMFDA-labeled Jurkat cells in the absence or presence 1 mM GRGDSP or GRGESP, or 10 μg/ml HP 2/1. Competition between EC3 and HP2/1 was also confirmed in cell suspension using FACS analysis. […] The experiment was performed using flow cytometry. […] The samples were fixed by addition of 1% paraformaldehyde before measurement of fluorescence intensity.

α4β1 [1] = molecular target: T1, α4β1 (Homo sapiens, UniProt P05556+P13612); assay: Jurkat cell adhesion to immobilized VCAM-1; format: cell-based
T1 construct: host or cells: Jurkat
Experimental: as §1
The cell adhesion assay (as described in Example 1) was used to study the inhibitory effect of the eluted fractions on Jurkat cell adhesion to immobilized VCAM-1 and on K562 cell adhesion to fibronectin. Recombinant VCAM-1 (0.5 μg/well) or fibronectin (0.5 μg/well) were immobilized overnight at 4° C. on a 96-well plate (Falcon) in PBS buffer. After blocking, the CMFDA-labeled cells were added to each well in the presence of 5 μg per sample of protein from selected fractions.
Recombinant human VCAM-1 (0.5 μg/well) was immobilized in the wells of an ELISA plate overnight in PBS buffer. The plate was blocked using HBSS buffer containing 1% BSA. […] The plate was incubated for 30 minutes at 37° C. Unbound cells were removed by aspiration and the wells were washed with HBSS buffer.
(§2) The effect of each peptide on cell adhesion was determined as described above. […] Cells that attached to the plates were lysed with detergent, and fluorescence intensity was measured. Percent inhibition was measured at each concentration and IC50 was determined.

α4β1 (VLA-4) integrin = details: rabbit cardiac allografts; cited from earlier work
α4β1 [2] = molecular target: T2, α4β1 (UniProt G3HZ55+P13612); assay: α4B2 (CHOα4+/α5−) cell adhesion to immobilized VCAM-1; format: cell-based, human; parameters: expressed in transfected cells; host or cells: B2 CHO cells (α5-deficient), gift of Dr. Y. Takada; details: α4B2 (CHOα4+/α5−) cells, ligand VCAM-1
Experimental: as §1
Chinese hamster ovary cells transfected with human α4 integrin were provided by Dr. Y. Takada (Scripps Research Institute, La Jolla, Calif.). […] The bound cells were lysed with 0.5% Triton X-100, and fluorescence was measured.
as §2

αIIbβ3 [3] = molecular target: T3, αIIbβ3 (Homo sapiens, UniProt P05106+P08514); assay: ADP-induced platelet aggregation in platelet rich plasma (ADP PA); format: cell-based; parameters: endogenous in cells; host or cells: platelets in platelet rich plasma; details: Platelets, αIIbβ3, ligand Fg, 30 μM ADP
Experimental: (§3) Blood from a healthy donor was collected into a syringe containing sodium citrate as an anticoagulant. The anticoagulated blood was centrifuged at 400 g for 17 minutes, and platelet rich plasma (PRP) was removed by aspiration.

α4β7 = molecular target: T4, α4β7 (Homo sapiens, UniProt P13612+P26010); assay: RPMI 8866 cell adhesion to MadCAM-1; format: cell-based; details: RPMI 8866 cells, α4β7, ligand MadCAM-1
T4 construct: endogenous in cells; host or cells: JY cells (A11); RPMI 8866 cells (A12)
Experimental: as §1, §2

[4] = system: lymphocyte infiltration of pancreatic Langerhans islets; assay: Lymphocyte infiltration of Langerhans islets in Non Obese Diabetic (NOD) mice; format: in vivo, mouse; details: for effect on lymphocyte infiltration in pancreatic islets of NOD mice (in words): i.p. three times per week, nine weeks
Experimental: Female NOD mice from […] of age were purchased from Jackson Laboratory (Bar Harbor, Me.).
After nine weeks of treatment the animals were sacrificed by exposure to CO2. The pancreas was removed, frozen, and stored at −70° C. until the histological analysis. For the histological analysis, five μm sections of frozen tissue were fixed with acetone. For detection of infiltrating lymphocytes, the sections were stained with hematoxylin/eosin, and observed by light microscopy.

α6β1 = molecular target: T5, α6β1 (Homo sapiens, UniProt P05556+P23229); assay: K562 (α6+) cell adhesion to laminin; format: cell-based
T5 construct: expressed in transfected cells; host or cells: K562 transfected with α6
Experimental: as §1, §2

αIIbβ3 [5] = molecular target: T3, αIIbβ3; assay: A5 (CHOαIIbβ3+) cell adhesion to immobilized fibrinogen; format: cell-based; details: A5 (CHOαIIbβ3+) cells, ligand Fg
Experimental: as §1, §2

αvβ3 = molecular target: T6, αvβ3 (Homo sapiens, UniProt P05106+P06756); assay: VNRC3 (CHOαvβ3+) cell adhesion to immobilized vitronectin; format: cell-based; details: VNRC3 (CHOαvβ3+) cells, ligand Vn
T6 construct: expressed in transfected cells; host or cells: CHO (VNRC3 cells), gift of Dr. M. Ginsberg
Experimental: as §1, §2

α5β1 = molecular target: T7, α5β1 (Homo sapiens, UniProt P05556+P08648); assay: K562 cell adhesion to immobilized fibronectin; format: cell-based; details: 5 μg per sample of protein from fraction
T7 construct: host or cells: K562
Experimental: as §1

αIIbβ3, αvβ3, α5β1 = assay: Panel of RGD-selective integrin assays (platelet aggregation and cell adhesion); format: cell-based; details: range over the panel (Table 1); read-out: concentrations of potent inhibition of αIIbβ3-dependent platelet aggregation and αIIbβ3-, αvβ3-, α5β1-dependent cell adhesion
Experimental: as §2, §3

α4β1 and α4β7 integrins = assay: Panel of α4 integrin cell adhesion assays; format: cell-based; details: at 10 μM
Experimental: as §1, §2

α4β1 [6] = molecular target: T2, α4β1; assay: A2 (CHOα4+) cell adhesion to immobilized VCAM-1; format: cell-based, human; parameters: expressed in transfected cells; host or cells: CHO (A2 cells, α4+ α5+), gift of Dr. Y. Takada; details: A2 (CHOα4+) cells, ligand VCAM-1
Experimental: as §1, §2

MV3 cells = details: immune deficient mice; cited from earlier work
αIIbβ3 [7] = molecular target: T3, αIIbβ3; parameters: endogenous in cells; host or cells: platelets in platelet rich plasma; details: after reduction and ethylpyridylethylation; Calvete et al.; cited from earlier work

T5 sequence (P23229 24-938 limits assumed): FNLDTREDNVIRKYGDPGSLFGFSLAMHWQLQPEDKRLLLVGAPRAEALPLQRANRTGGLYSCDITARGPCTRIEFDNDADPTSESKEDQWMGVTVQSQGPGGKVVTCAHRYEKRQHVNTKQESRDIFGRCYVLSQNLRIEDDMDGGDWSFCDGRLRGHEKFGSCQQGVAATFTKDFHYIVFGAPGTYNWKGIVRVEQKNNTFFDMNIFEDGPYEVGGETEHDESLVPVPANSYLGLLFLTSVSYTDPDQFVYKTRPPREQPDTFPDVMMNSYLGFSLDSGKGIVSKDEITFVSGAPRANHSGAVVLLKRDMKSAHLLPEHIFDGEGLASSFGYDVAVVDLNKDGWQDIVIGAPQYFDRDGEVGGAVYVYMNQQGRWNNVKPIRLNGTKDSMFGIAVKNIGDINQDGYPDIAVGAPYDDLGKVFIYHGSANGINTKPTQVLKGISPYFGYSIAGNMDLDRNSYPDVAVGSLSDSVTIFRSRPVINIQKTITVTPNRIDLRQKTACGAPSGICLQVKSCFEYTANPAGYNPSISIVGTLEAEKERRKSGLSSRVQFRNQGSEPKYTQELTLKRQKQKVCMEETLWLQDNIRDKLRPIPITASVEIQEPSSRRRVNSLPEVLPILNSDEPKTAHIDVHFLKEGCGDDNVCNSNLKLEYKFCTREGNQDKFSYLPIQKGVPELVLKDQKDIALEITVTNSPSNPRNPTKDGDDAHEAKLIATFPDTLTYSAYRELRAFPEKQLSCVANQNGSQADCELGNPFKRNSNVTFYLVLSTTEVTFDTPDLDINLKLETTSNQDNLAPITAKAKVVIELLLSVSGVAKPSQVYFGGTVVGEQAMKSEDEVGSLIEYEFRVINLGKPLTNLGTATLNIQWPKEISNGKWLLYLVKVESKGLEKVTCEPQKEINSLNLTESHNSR
T5 sequence (P23229 942-1130 partner limits assumed): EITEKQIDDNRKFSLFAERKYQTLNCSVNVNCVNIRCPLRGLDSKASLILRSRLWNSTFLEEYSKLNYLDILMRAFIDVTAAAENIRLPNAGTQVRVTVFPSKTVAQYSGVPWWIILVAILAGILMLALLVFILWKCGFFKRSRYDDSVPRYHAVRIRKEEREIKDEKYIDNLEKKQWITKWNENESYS
T5 sequence (P05556 21-798): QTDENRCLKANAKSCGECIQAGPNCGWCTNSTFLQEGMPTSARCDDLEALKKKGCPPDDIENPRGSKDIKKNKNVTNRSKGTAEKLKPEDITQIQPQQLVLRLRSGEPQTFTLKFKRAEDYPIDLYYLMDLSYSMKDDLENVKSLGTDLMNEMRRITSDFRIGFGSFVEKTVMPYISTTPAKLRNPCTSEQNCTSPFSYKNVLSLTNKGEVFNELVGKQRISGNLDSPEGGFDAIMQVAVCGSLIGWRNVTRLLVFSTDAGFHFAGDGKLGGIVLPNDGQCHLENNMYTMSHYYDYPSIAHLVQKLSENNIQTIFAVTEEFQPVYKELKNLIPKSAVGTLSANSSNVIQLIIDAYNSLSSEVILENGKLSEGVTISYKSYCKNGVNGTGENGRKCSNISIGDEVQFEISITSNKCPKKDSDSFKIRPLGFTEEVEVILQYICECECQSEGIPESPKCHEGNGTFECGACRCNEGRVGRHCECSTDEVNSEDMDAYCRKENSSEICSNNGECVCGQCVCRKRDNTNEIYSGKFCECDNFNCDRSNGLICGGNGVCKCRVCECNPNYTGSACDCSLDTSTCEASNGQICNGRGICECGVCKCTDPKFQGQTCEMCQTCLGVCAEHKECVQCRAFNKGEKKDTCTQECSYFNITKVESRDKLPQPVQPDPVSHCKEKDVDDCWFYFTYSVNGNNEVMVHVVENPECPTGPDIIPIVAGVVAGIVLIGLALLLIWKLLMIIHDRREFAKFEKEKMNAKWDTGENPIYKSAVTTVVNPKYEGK
T6 sequence (P06756 31-889 limits assumed): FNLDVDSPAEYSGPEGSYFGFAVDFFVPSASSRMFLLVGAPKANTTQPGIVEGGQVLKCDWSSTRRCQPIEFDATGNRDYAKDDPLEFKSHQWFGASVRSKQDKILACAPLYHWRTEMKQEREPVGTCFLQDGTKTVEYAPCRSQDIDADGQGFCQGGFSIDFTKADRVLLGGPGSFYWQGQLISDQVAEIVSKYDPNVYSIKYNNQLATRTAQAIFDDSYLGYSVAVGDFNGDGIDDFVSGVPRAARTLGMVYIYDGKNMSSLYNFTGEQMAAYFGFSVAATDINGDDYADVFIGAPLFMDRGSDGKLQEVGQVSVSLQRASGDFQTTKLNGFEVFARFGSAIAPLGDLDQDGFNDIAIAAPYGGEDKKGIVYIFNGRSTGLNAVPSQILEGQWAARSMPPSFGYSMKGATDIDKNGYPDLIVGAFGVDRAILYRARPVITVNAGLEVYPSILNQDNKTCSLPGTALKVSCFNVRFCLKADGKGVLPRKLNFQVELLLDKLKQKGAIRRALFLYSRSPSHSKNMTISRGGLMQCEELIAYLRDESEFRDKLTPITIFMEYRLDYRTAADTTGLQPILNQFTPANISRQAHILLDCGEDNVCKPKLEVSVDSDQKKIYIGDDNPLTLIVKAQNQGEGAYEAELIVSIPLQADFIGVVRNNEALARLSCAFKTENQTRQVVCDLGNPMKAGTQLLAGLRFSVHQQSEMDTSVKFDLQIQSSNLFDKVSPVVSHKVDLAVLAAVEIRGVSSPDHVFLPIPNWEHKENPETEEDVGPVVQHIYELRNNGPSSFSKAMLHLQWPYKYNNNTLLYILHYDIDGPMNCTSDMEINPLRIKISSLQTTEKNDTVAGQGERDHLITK
T6 sequence (P06756 891-1048 partner limits assumed): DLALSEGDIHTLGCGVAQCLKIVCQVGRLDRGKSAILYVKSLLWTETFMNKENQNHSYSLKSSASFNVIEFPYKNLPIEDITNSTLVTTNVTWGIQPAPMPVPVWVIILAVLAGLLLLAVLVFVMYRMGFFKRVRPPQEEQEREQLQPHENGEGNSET
T6 sequence (P05106 27-788): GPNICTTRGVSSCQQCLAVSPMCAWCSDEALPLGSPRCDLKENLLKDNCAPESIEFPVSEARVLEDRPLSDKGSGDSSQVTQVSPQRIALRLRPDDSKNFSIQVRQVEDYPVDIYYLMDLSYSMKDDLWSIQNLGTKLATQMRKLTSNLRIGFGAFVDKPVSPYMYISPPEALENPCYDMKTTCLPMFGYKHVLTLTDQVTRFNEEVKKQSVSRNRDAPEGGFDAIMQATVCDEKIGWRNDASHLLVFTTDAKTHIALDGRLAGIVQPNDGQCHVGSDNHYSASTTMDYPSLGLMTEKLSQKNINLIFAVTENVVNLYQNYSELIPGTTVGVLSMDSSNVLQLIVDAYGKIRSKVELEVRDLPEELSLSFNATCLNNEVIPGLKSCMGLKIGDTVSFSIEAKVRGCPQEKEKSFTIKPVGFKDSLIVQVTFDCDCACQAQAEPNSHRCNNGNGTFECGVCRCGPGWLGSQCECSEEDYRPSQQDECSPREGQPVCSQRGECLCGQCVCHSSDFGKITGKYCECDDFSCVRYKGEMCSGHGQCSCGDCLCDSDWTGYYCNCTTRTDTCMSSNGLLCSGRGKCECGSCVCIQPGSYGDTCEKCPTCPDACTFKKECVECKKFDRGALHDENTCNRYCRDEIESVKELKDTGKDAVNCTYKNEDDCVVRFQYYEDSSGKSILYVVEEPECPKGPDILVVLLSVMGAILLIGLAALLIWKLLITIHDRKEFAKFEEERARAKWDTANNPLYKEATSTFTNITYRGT
T7 sequence (P08648 42-894 limits assumed): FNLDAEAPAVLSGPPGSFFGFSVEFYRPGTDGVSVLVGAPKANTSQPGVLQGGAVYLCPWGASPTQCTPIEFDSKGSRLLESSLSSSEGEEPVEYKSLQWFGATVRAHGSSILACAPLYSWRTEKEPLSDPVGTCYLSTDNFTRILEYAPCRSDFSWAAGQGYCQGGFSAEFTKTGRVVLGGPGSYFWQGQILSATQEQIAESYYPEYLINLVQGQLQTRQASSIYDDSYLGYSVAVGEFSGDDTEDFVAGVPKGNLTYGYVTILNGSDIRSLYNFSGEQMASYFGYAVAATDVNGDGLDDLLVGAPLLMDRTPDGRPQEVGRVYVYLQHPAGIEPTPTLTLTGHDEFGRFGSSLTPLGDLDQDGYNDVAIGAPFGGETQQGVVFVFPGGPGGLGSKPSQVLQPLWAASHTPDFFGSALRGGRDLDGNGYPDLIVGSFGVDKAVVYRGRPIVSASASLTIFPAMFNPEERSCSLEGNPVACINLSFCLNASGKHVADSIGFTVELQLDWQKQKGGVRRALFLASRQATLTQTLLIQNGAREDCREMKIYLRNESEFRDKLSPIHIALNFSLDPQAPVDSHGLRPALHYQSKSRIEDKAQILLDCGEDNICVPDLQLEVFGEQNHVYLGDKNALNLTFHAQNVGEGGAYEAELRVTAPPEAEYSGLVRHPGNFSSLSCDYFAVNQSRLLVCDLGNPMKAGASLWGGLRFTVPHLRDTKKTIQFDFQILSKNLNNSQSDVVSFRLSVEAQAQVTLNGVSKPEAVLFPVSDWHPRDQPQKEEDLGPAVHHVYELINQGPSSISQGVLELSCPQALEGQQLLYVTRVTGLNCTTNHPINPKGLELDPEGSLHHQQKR
T7 sequence (P08648 895-1049 partner limits assumed): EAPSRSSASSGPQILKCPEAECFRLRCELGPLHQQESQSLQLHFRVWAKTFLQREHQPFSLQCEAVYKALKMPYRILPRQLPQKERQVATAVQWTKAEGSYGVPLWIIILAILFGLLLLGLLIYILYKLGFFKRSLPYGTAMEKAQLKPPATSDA
T7 sequence (P05556 21-798): as the sequence (P05556 21-798) above

## GRGDSP
Jurkat cells
  effect on adhesion of Jurkat cells to immobilized EC3: not effective

## CSCC[C@@H]1NC(=O)[C@H](C)NC(=O)[C@H](CCCNC(=N)N)NC(=O)[C@H](CCCCN)NC(=O)[C@@H](N)CSSC[C@@H](C(=O)O)NC(=O)[C@H](Cc2ccc(O)cc2)NC(=O)[C@H](CC(=O)O)NC(=O)[C@H](CC(N)=O)NC(=O)[C@H](CC(C)C)NC(=O)CNC(=O)[C@H](CC(=O)O)NC(=O)[C@H](CC(C)C)NC1=O (H-CKRAMLDGLNDYC-OH; disulfide 1-13)
α4β1 [1]
  IC50: 1000 µM
α4β1 [1]; Jurkat cells / VCAM-1
  activity relative to MLDG in molar ratio: five fold more active

## phenylacetic acid-Leu-Asp-Phe-d-Pro-amide [CS-1 peptide]
α4β1 (VLA-4) integrin
  effect on accelerated coronary arteriopathy: reduces accelerated coronary arteriopathy

## Echistatin (ECESGPCCRNCKFLKEGTICKRARGDDMDDYCNGKTCDCPRNPHKGPAT) [reference compound]
α4β1 [2]
  IC50: > 10 µM
αIIbβ3 [3]
  IC50: 0.13 µM
α4β7
  IC50: > 10 µM
[4]; ++ = ⅓ of the islet infiltrated, of 27 (echistatin) or 29 (EC-3) islets, nine weeks i.p.
  Number of Islets, Infiltration Score ++: 10
[4]; +++ = ½ or more of the islet infiltrated, of 27 (echistatin) or 29 (EC-3) islets, nine weeks i.p.
  Number of Islets, Infiltration Score +++: 10
[4]; NOD mice, i.p. three times per week for nine weeks, echistatin 1 μg/mouse, EC-3 3 μg/mouse, 10 animals per group
  Number of Animals without infiltration: 0
[4]; echistatin 1 μg/mouse, EC-3 3 μg/mouse
  effect on lymphocyte infiltration in pancreatic islets of NOD mice (in words): inactive
[4]; echistatin 1 μg/mouse, EC-3 3 μg/mouse, listed as echistatin
  effect on lymphocyte infiltration in pancreatic islets of NOD mice (in words): ineffective
[4]; − = no infiltration, of 27 (echistatin) or 29 (EC-3) islets, nine weeks i.p.
  Number of Islets, Infiltration Score −: 5
α6β1; K562 (α6+) cells, α6β1, ligand Lm
  IC50: > 10 µM
α6β1; at concentration 10 μM
  inhibition of adhesion to laminin of K562 cells transfected with α6: neither echistatin nor EC3 inhibited
α4β1 [1]; Jurkat cells, ligand VCAM-1, read-out: IC50, cell adhesion
  IC50: > 10 µM
αIIbβ3 [5]
  IC50: 0.05 µM
αvβ3
  IC50: 0.05 µM
α5β1
  inhibition of binding of K562 cells to immobilized fibronectin: inhibited binding
αIIbβ3, αvβ3, α5β1
  IC50: 0.02 to 0.13 µM
α4β1 and α4β7 integrins
  activity in α4 integrin cell adhesion assays: no detectable activity
α4β1 [6]
  IC50: > 10 µM

## eristostatin: short disintegrin, potent inhibitor of αIIbβ3, SEQ ID NO:8 (QEEPCATGPCCRRCKFKRAGKVCRVARGDWNDDYCTGKSCDCPRNPWNG; ends and bridges not checked; cysteine pairing not given here; listed as Eristocophis macmahonii)
MV3 cells
  effect on human melanoma cell (MV3) metastases: inhibits human melanoma cell (MV3) metastases

## RGDS [reference compound]
α4β1 [1]; at this concentration (5 mM)
  inhibition of Jurkat cell adhesion to immobilized VCAM-1: inactive

## flavoridin: medium size disintegrin, SEQ ID NO:10
αIIbβ3 [7]
  decrease of ability to inhibit ADP-induced platelet aggregation: ~40 fold

## CKRAMLA^7GLNDYC
α4β1 [1]
  inhibition of Jurkat cell adhesion to immobilized VCAM-1 (in words): no significant activity
